# Earlier results in patent US9949928B2, “Biodegradable copolymers, systems including the copolymers, and methods of forming and using same” (The Regents of the University of Colorado, a body corporate, priority 2013, dated 2018).
# Conditions: cited from earlier work
smiles,measurement,value
CC1(C)O[C@@H]2C[C@H]3[C@@H]4CCC5=CC(=O)C=C[C@]5(C)[C@@]4(F)[C@@H](O)C[C@]3(C)[C@]2(C(=O)CO)O1 [triamcinolone acetonide],log P,1.16
